Measurements taken from publication PMC9025560, “A Comparison of Evans Blue and 4-(p-Iodophenyl)butyryl Albumin Binding Moieties on an Integrin αvβ6 Binding Peptide” (Pharmaceutics, 2022).
Like-named read-outs stand apart in the source and are kept apart here.

How the values were obtained:
[1] = Biodistribution in mice bearing BxPC-3 xenograft tumors; format: in vivo; conditions: female, athymic nu/nu-nude, mouse, in vivo, total radioactivity; for tissue uptake at 4 h: 4 h p.i.; for tissue uptake at 24 h: 24 h p.i.; for tissue uptake at 48 h: 48 h p.i.
Experimental: (§1) All animal procedures conformed to the Animal Welfare Act and were approved by the University of California, Davis Institutional Animal Care and Use Committee. Female athymic nu/nu-nude mice (6–8 weeks old) were purchased from Charles River Laboratories (Wilmington, MA, USA) and provided food and water on an ad libitum basis. BxPC-3 xenografts were implanted according to previous methods. Briefly, BxPC-3 cells were evaluated by flow cytometry to confirm integrin αvβ6 expression levels, injected subcutaneously into the left flank [5 million in 100 μL of a 1:1 mixture of serum-free RPMI and GFR Matrigel (Corning, New York, NY, USA)], and allowed to grow for approximately 3 weeks until tumors reached a diameter of 0.5–1 cm.
(§2) For biodistribution studies the [^64Cu]1–4 (3.7–5.55 MBq) in PBS (100 μL, pH 7.2) was injected intravenously (i.v.) via catheter into the tail vein. Following a conscious uptake period, the mice were anesthetized (5% isoflurane), euthanized, and dissected ([^64Cu]1 and [^64Cu]2, n = 3/radiolabeled peptide/time point; 4, 24, and 48 h p.i.; the 72 h time point was obtained from the imaging animals after the 72 h PET/CT scans; compounds [^64Cu]3 and [^64Cu]4, n = 2/radiolabeled compound at 4 h p.i.). Tissues were rapidly collected, weighed, and radioactivity measured with a γ-counter. Decay-corrected radioactivity concentrations are expressed as the percentage of injected dose per gram of tissue (% ID/g). Data are reported as mean ± standard deviation (SD) (Figure S20, S21 and S25).

BxPC-3 xenograft tumors = assay: as above; format: in vivo
Experimental: as §1, §2

[2] = iv, i.v., read-out: Blood uptake
[3] = iv, i.v., read-out: Bone uptake
[4] = iv, i.v., read-out: Brain uptake
[5] = iv, i.v., read-out: BxPC-3 Tumor uptake
[6] = iv, i.v., read-out: Fecal Matter radioactivity
[7] = iv, i.v., read-out: Gall Bladder uptake
[8] = iv, i.v., read-out: Heart uptake
[9] = iv, i.v., read-out: Kidneys uptake
[10] = iv, i.v., read-out: Lg. Intestines uptake
[11] = iv, i.v., read-out: Liver uptake
[12] = iv, i.v., read-out: Lung uptake
[13] = iv, i.v., read-out: Muscle uptake
[14] = iv, i.v., read-out: Pancreas uptake
[15] = iv, i.v., read-out: Skin uptake
[16] = iv, i.v., read-out: Sm. Intestines uptake
[17] = iv, i.v., read-out: Spleen uptake
[18] = iv, i.v., read-out: Stomach uptake
[19] = iv, i.v., read-out: Urine radioactivity

CC(C)C[C@H](NC(=O)[C@H](CC(=O)O)NC(=O)CNC(=O)[C@H](CCCNC(=N)N)NC(=O)[C@H](CC(C)C)NC(=O)[C@H](CC(N)=O)NC(=O)[C@@H]1CCCN1C(=O)[C@@H](NC(=O)[C@H](C)NC(=O)[C@H](CC(N)=O)NC(=O)CCOCCOCCOCCOCCOCCOCCOCCOCCOCCOCCOCCOCCOCCOCCOCCOCCOCCOCCOCCOCCOCCOCCOCCOCCOCCOCCOCCOCCNC(=O)[C@H](CCCCNC(=O)[C@H](CC(=O)O)NC(=O)CCCNC(=O)CCCc1ccc(I)cc1)NC(=O)CN1CCN(CC(=O)O)CCN(CC(=O)O)CCN(CC(=O)O)CC1)C(C)C)C(=O)N[C@@H](CCC(N)=O)C(=O)N[C@H](C(=O)N[C@@H](CC(C)C)C(=O)N[C@@H](C)C(=O)N[C@@H](CCC(N)=O)C(=O)N[C@@H](CCCNC(=N)N)C(=O)N[C@H](C(=O)N[C@@H](C)C(=O)N[C@@H](CCCNC(=N)N)C(=O)N[C@H](C(=O)NCCOCCOCCOCCOCCOCCOCCOCCOCCOCCOCCOCCOCCOCCOCCOCCOCCOCCOCCOCCOCCOCCOCCOCCOCCOCCOCCOCCOCCC(N)=O)[C@@H](C)O)C(C)C)C(C)C [[^64Cu]2, [^64Cu]Cu DOTA-IP-αvβ6-BP, metal not drawn]
tissue uptake at 4 h [1, 2]: 1.21 ± 0.16 %ID/g | tissue uptake at 4 h [1, 3]: 0.59 ± 0.15 %ID/g | tissue uptake at 4 h [1, 4]: 0.12 ± 0.002 %ID/g | tissue uptake at 4 h [1, 5]: 7.6 ± 0.43 %ID/g | tissue uptake at 4 h [1, 6]: 9.32 ± 1.08 %ID/g | tissue uptake at 4 h [1, 7]: 4.33 ± 2.64 %ID/g | tissue uptake at 4 h [1, 8]: 2.22 ± 0.11 %ID/g | tissue uptake at 4 h [1, 9]: 33.6 ± 5.39 %ID/g | tissue uptake at 4 h [1, 10]: 9.83 ± 0.69 %ID/g | tissue uptake at 4 h [1, 11]: 1.58 ± 0.26 %ID/g | tissue uptake at 4 h [1, 12]: 2.25 ± 0.39 %ID/g | tissue uptake at 4 h [1, 13]: 0.99 ± 0.3 %ID/g | tissue uptake at 4 h [1, 14]: 1.04 ± 0.09 %ID/g | tissue uptake at 4 h [1, 15]: 2.72 ± 0.31 %ID/g | tissue uptake at 4 h [1, 16]: 9.55 ± 1.21 %ID/g | tissue uptake at 4 h [1, 17]: 0.41 ± 0.13 %ID/g | tissue uptake at 4 h [1, 18]: 18.1 ± 2.91 %ID/g | tissue uptake at 4 h [1, 19]: 25.1 ± 6.79 %ID/g | tissue uptake at 24 h [1, 2]: 0.2 ± 0.04 %ID/g | tissue uptake at 24 h [1, 3]: 0.28 ± 0.21 %ID/g | tissue uptake at 24 h [1, 4]: 0.08 ± 0.01 %ID/g | tissue uptake at 24 h [1, 5]: 4.41 ± 1.25 %ID/g | tissue uptake at 24 h [1, 6]: 4.58 ± 1.03 %ID/g | tissue uptake at 24 h [1, 7]: 5.05 ± 3.56 %ID/g | tissue uptake at 24 h [1, 8]: 1.61 ± 0.06 %ID/g | tissue uptake at 24 h [1, 9]: 21.9 ± 1.74 %ID/g | tissue uptake at 24 h [1, 10]: 5.58 ± 0.94 %ID/g | tissue uptake at 24 h [1, 11]: 1.62 ± 0.2 %ID/g | tissue uptake at 24 h [1, 12]: 1.69 ± 0.07 %ID/g | tissue uptake at 24 h [1, 13]: 0.78 ± 0.22 %ID/g | tissue uptake at 24 h [1, 14]: 0.78 ± 0.01 %ID/g | tissue uptake at 24 h [1, 15]: 1.48 ± 0.03 %ID/g | tissue uptake at 24 h [1, 16]: 4.58 ± 0.62 %ID/g | tissue uptake at 24 h [1, 17]: 0.31 ± 0.05 %ID/g | tissue uptake at 24 h [1, 18]: 11.1 ± 1.16 %ID/g | tissue uptake at 24 h [1, 19]: 1.7 ± 1.91 %ID/g | tissue uptake at 48 h [1, 2]: 0.2 ± 0.04 %ID/g | tissue uptake at 48 h [1, 3]: 0.24 ± 0.09 %ID/g | tissue uptake at 48 h [1, 4]: 0.09 ± 0.01 %ID/g | tissue uptake at 48 h [1, 5]: 4.09 ± 1.28 %ID/g | tissue uptake at 48 h [1, 6]: 2.67 ± 0.58 %ID/g | tissue uptake at 48 h [1, 7]: 2.83 ± 0.86 %ID/g | tissue uptake at 48 h [1, 8]: 1.43 ± 0.2 %ID/g | tissue uptake at 48 h [1, 9]: 11.8 ± 1.02 %ID/g | tissue uptake at 48 h [1, 10]: 3.95 ± 0.81 %ID/g | tissue uptake at 48 h [1, 11]: 1.71 ± 0.21 %ID/g | tissue uptake at 48 h [1, 12]: 1.33 ± 0.15 %ID/g | tissue uptake at 48 h [1, 13]: 0.63 ± 0.07 %ID/g | tissue uptake at 48 h [1, 14]: 0.64 ± 0.08 %ID/g | tissue uptake at 48 h [1, 15]: 1.22 ± 0.22 %ID/g | tissue uptake at 48 h [1, 16]: 2.28 ± 0.1 %ID/g | tissue uptake at 48 h [1, 17]: 0.35 ± 0.05 %ID/g | tissue uptake at 48 h [1, 18]: 6.4 ± 1.02 %ID/g | tissue uptake at 48 h [1, 19]: 3.24 ± 1.03 %ID/g | tissue uptake at 72 h ([1]; iv, 72 h p.i., i.v., read-out: Blood uptake): 0.17 ± 0.001 %ID/g | tissue uptake at 72 h ([1]; iv, 72 h p.i., i.v., read-out: Bone uptake): 0.26 ± 0.01 %ID/g | tissue uptake at 72 h ([1]; iv, 72 h p.i., i.v., read-out: Brain uptake): 0.1 ± 0.02 %ID/g | tissue uptake at 72 h ([1]; iv, 72 h p.i., i.v., read-out: BxPC-3 Tumor uptake): 4.91 ± 1.19 %ID/g | tissue uptake at 72 h ([1]; iv, 72 h p.i., i.v., read-out: Fecal Matter radioactivity): 2.29 ± 0.53 %ID/g | tissue uptake at 72 h ([1]; iv, 72 h p.i., i.v., read-out: Gall Bladder uptake): 3.21 ± 1.02 %ID/g | tissue uptake at 72 h ([1]; iv, 72 h p.i., i.v., read-out: Heart uptake): 1.05 ± 0.05 %ID/g | tissue uptake at 72 h ([1]; iv, 72 h p.i., i.v., read-out: Kidneys uptake): 11.5 ± 1.02 %ID/g | tissue uptake at 72 h ([1]; iv, 72 h p.i., i.v., read-out: Lg. Intestines uptake): 3 ± 0.37 %ID/g | tissue uptake at 72 h ([1]; iv, 72 h p.i., i.v., read-out: Liver uptake): 1.3 ± 0.13 %ID/g | tissue uptake at 72 h ([1]; iv, 72 h p.i., i.v., read-out: Lung uptake): 1.16 ± 0.22 %ID/g | tissue uptake at 72 h ([1]; iv, 72 h p.i., i.v., read-out: Muscle uptake): 0.76 ± 0.24 %ID/g | tissue uptake at 72 h ([1]; iv, 72 h p.i., i.v., read-out: Pancreas uptake): 0.57 ± 0.06 %ID/g | tissue uptake at 72 h ([1]; iv, 72 h p.i., i.v., read-out: Skin uptake): 0.92 ± 0.14 %ID/g | tissue uptake at 72 h ([1]; iv, 72 h p.i., i.v., read-out: Sm. Intestines uptake): 1.24 ± 0.11 %ID/g | tissue uptake at 72 h ([1]; iv, 72 h p.i., i.v., read-out: Spleen uptake): 0.38 ± 0.14 %ID/g | tissue uptake at 72 h ([1]; iv, 72 h p.i., i.v., read-out: Stomach uptake): 3.14 ± 0.62 %ID/g | tissue uptake at 72 h ([1]; iv, 72 h p.i., i.v., read-out: Urine radioactivity): 1.46 ± 1.17 %ID/g | tissue uptake at 72 h ([1]; 72 h, read-out: GI uptake): < 3.2 %ID/g | tissue uptake ([1]; throughout 4–72 h, read-out: Liver uptake throughout): < 3 %ID/g | Tumor-Blood ratio (BxPC-3 xenograft tumors; 4 h p.i.): > 4/1 | Tumor-Kidney ratio (BxPC-3 xenograft tumors; 4 h p.i.): 0.23 ± 0.02 | Tumor-Lg Intestines ratio (BxPC-3 xenograft tumors; 4 h p.i.): 0.78 ± 0.10 | Tumor-Liver ratio (BxPC-3 xenograft tumors; 4 h p.i.): 3.2–4.9 | Tumor-Muscle ratio (BxPC-3 xenograft tumors; 4 h p.i.): > 8/1 | Tumor-Sm Intestines ratio (BxPC-3 xenograft tumors; 4 h p.i.): 0.80 ± 0.07 | Tumor-Stomach ratio (BxPC-3 xenograft tumors; 4 h p.i.): 0.43 ± 0.07 | BxPC-3 Tumor uptake (BxPC-3 xenograft tumors; 4 h p.i., i.v.): > 7.5 % ID/g | Kidneys uptake (BxPC-3 xenograft tumors; 4 h p.i., i.v.): 33.6 ± 5.4 % ID/g | Stomach uptake (BxPC-3 xenograft tumors; 4 h p.i., i.v.): 18.1 ± 2.9 % ID/g | Tumor-Blood ratio (BxPC-3 xenograft tumors; 4 h p.i., listed as [64Cu]2): 6.15 ± 0.47 | Tumor-Liver ratio (BxPC-3 xenograft tumors; 4 h p.i., listed as [64Cu]2): 4.89 ± 0.63 | Tumor-Muscle ratio (BxPC-3 xenograft tumors; 4 h p.i., listed as [64Cu]2): 8.16 ± 2.41 | Tumor-Blood ratio (BxPC-3 xenograft tumors; 24 h p.i.): 21.86 ±5.94 | Tumor-Kidney ratio (BxPC-3 xenograft tumors; 24 h p.i.): 0.20 ± 0.06 | Tumor-Lg Intestines ratio (BxPC-3 xenograft tumors; 24 h p.i.): 0.81 ±0.24 | Tumor-Liver ratio (BxPC-3 xenograft tumors; 24 h p.i.): 2.72 ± 0.62 | Tumor-Muscle ratio (BxPC-3 xenograft tumors; 24 h p.i.): 5.87 ±2.04 | Tumor-Sm Intestines ratio (BxPC-3 xenograft tumors; 24 h p.i.): 0.97 ±0.27 | Tumor-Stomach ratio (BxPC-3 xenograft tumors; 24 h p.i.): 0.39 ±0.09 | Tumor-Blood ratio (BxPC-3 xenograft tumors; 48 h p.i.): 22.11 ± 14.41 | Tumor-Kidney ratio (BxPC-3 xenograft tumors; 48 h p.i.): 0.35 ± 0.14 | Tumor-Lg Intestines ratio (BxPC-3 xenograft tumors; 48 h p.i.): 1.10 ± 0.47 | Tumor-Liver ratio (BxPC-3 xenograft tumors; 48 h p.i.): 2.46 ± 0.97 | Tumor-Muscle ratio (BxPC-3 xenograft tumors; 48 h p.i.): 6.68 ± 2.42 | Tumor-Sm Intestines ratio (BxPC-3 xenograft tumors; 48 h p.i.): 1.81 ± 0.61 | Tumor-Stomach ratio (BxPC-3 xenograft tumors; 48 h p.i.): 0.67 ± 0.27 | Tumor-Blood ratio (BxPC-3 xenograft tumors; 72 h p.i.): 28.82 ± 2.64 | Tumor-Kidney ratio (BxPC-3 xenograft tumors; 72 h p.i.): 0.44 ± 0.14 | Tumor-Lg Intestines ratio (BxPC-3 xenograft tumors; 72 h p.i.): 1.63 ±0.32 | Tumor-Liver ratio (BxPC-3 xenograft tumors; 72 h p.i.): 3.77 ± 0.72 | Tumor-Muscle ratio (BxPC-3 xenograft tumors; 72 h p.i.): 6.70 ±1.74 | Tumor-Sm Intestines ratio (BxPC-3 xenograft tumors; 72 h p.i.): 4.01 ±1.10 | Tumor-Stomach ratio (BxPC-3 xenograft tumors; 72 h p.i.): 1.55 ±0.08 | Fold increase in tumor accumulation over non-ABM [64Cu]Cu DOTA-αvβ6-BP (BxPC-3 xenograft tumors; BxPC-3 tumor model): > 3 fold
